Measurements: patent US10272117B2, “Methods of using an activator of cereblon for neural cell expansion and the treatment of central nervous system disorders” (Celgene Corporation, priority 2014, dated 2019)

System: zebrafish embryos
Assay: Whole-mount in situ hybridization of gene expression in zebrafish embryos
Assay type: in vivo
Procedure: This process was carried out basically in accordance with the technique of Thisse et al. See High-resolution In Situ Hybridization to Whole-mount Zebrafish Embryos, Nat. Protcol., 3 (1) 59-69, (2008). The differences were that 5 mg/ml Torula yeast RNA was used as a blocker in the probe hybridization solution, and that 0.5% Blocking Reagent (Roche) was used as a blocker in the antibody reaction solution. The cDNA of the genes used as the probe (the six3.2 gene, the emx1 gene, the pax2.1 gene, the foxg1 gene, and the otx2 gene) were presents of the original provider. As the probe for the lhx2 gene, the one initially cloned by Ando was used. For the probes of the CRBN gene and related genes, primers were designed based on the EST database of zebrafish, and the probes were cloned from a cDNA library.
Expression of Pou5f1 (Oct3/4), Klf4, c-Myc, and HuC (Elavl3) in zebrafish embryos was analyzed by in situ hybridization. The embryos were fixed with 4% paraformaldehyde for 1 hour at room temperature and rinsed with phosphate buffered saline (PBS). The fixed embryos were refixed with 100% methanol and placed at −80° C. for over 12 hours. The embryos were defixed by rinsing with PBS, and the skin was digested with pronase (2 mg/ml), followed by refixation and defixation, and prehybridized in HYB* buffer (50% formamide, 5×SSC, 10 mM Citric acid, 0.1% Tween 20) for 15 minutes and in HYB+(added as 5 mg/ml torula (yeast) RNA, 50 μg/ml heparin to HYB*) for 1 hour at 65° C. After addition of 1 ng/μl of DIG (digoxigenin)-labeled probe, hybridization was performed for overnight at 65° C. After hybridization, the embryos were washed by 50% formamide in 2×SSC for 30 minutes (twice), 2×SSC for 15 minutes, 0.2×SSC for 30 minutes (twice) at 65° C. Then blocking treatment was done by 0.5% purified casein in PBSTw (PBS plus 0.1% Tween 20) at room temperature for 1 hour. After that, immunostaining was performed in 1/4000 dilution of anti-DIG Fab-AP fragment in 0.5% purified casein in PBSTw for 4 hours at room temperature.
After washing with PBSTw for 90 minutes, staining was carried out in the presence of substrate of alkaline phosphatase (Nitro blue tetrazolium and 5-bromo 4-chloro 3-indolyl phosphate) in 100 mM Tris pH 9.5, 50 mM MgCl2, 100 mM NaCl, and 0.1% Tween-20. Reaction was stopped by rapid exchange of reaction buffer to PBSTw and cleaned with glycerol serials (30%, 50%, and 70% in PBS).
Expression of Ascl1a and Pou3f2b in CRBN-overexpressing and Ikaros-knockdown zebrafish embryos was analyzed by in situ hybridization. The embryos were fixed with 4% paraformaldehyde for 1 hour at room temperature and rinsed with phosphate buffered saline (PBS). The fixed embryos were refixed with 100% methanol and placed at −80° C. for over 12 hours. The embryos were defixed by rinsing with PBS, and the skin was digested with pronase (2 mg/ml), followed by refixation and defixation, and prehybridized in HYB* buffer (50% formamide, 5×SSC, 10 mM Citric acid, 0.1% Tween 20) for 15 minutes and in HYB+(added as 5 mg/ml torula (yeast) RNA, 50 μg/ml heparin to HYB*) for 1 hour at 65° C. After addition of 1 ng/μl of DIG (digoxigenin)-labeled probe, hybridization was performed for overnight at 65° C. After hybridization, the embryos were washed by 50% formamide in 2×SSC for 30 minutes twice, 2×SSC for 15 minutes, 0.2×SSC for 30 minutes twice at 65° C. Then blocking treatment was done by 0.5% purified casein in PBSTw (PBS plus 0.1% Tween 20) at room temperature for 1 hour. After that, immunostaining was performed in 1/4000 dilution of anti-DIG Fab-AP fragment in 0.5% purified casein in PBSTw for 4 hours at room temperature.
Expression of Sox2, Pou5f1 (Oct3/4), c-Myc, and Klf4 in zebrafish embryos was analyzed in untreated and CRBN-overexpressing zebrafish embryos by in situ hybridization. Overexpression was performed as follows: single-cell stage embryos were microinjected with 250 ng/μl of capped mRNA synthesized in vitro. […]

5′-TGTGTTTCTTGTGCTTTTTGCCCAT-3′ (all phosphorodiamidate morpholino (PMO)) [BRD7-knockdown, 25-mer antisense morpholino oligonucleotide (AMO) used for the BRD7 gene knockdown]
expression of Pou5f1 (Oct3/4) in the second and fourth rhombomeres in the hindbrain (10 hpf and 11 hpf): increased
expression of Huc in the brain and spinal cord (11 hpf): increased
number of HuC-positive neural progenitor cells in the brain and spinal cord (15 hpf): increased
number of the telencephalic neurons and the spinal cord neurons (16 hpf): increased
expression of Klf4 in the rostral portion of the neural tube (18 hpf): increased
expression of c-Myc in the tectal proliferation zone and ciliary marginal zone (30 hpf): clearly increased

5′-TTCCTGTGCCTCCTCAGTCTCCATC-3′ (all phosphorodiamidate morpholino (PMO)) [Ikaros-knockdown, 25-mer antisense morpholino oligonucleotide (AMO) used for the Ikaros gene knockdown]
expression of Ascl1a (25 hpf): remarkably increased
expression of Pou3f2b (26 hpf): increased
